Experimental findings from PMC13130965, “An Integrated Approach Combining Regulatory Tests in tg(cyp19a1b:GFP) Zebrafish Embryos to Assess Toxicity, Developmental Effects, and Estrogenic Activity of Chemicals: A Case Study with Bisphenol A Substitutes” (Environmental Science & Technology, 2026) are described below.

The assay addresses zebrafish ERβ2 (zfERβ2) (Danio rerio, UniProt Q7ZU32). As to the kind of experiment: ZELH-zfERβ2 luciferase reporter gene assay. Format: cell-based. The settings on record: % of positive control E2 10 nM.

Chain of zebrafish ERβ2 (zfERβ2) (Q7ZU32 1-553): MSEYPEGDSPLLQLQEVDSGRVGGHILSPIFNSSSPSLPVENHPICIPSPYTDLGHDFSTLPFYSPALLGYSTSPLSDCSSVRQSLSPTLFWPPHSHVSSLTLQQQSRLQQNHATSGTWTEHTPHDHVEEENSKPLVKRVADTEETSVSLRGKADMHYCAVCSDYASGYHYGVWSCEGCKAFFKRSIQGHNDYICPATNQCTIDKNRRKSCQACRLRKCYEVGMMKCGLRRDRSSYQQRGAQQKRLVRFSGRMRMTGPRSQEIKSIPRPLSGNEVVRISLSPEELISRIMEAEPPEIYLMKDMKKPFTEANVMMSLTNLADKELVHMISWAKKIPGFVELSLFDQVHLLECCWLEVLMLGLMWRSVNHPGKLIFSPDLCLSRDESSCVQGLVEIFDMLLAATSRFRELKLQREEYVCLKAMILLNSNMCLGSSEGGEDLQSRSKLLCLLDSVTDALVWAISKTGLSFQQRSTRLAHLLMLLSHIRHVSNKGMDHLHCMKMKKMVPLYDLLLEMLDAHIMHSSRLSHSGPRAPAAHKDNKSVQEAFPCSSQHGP

`CC(C)(c1ccc(O)cc1)c1ccc(O)cc1` [BPA, 4-[2-(4-hydroxyphenyl)propan-2-yl] phenol] returned a maximal efficacy of 55%.
